Values after ≈ are worked out from the molar mass of the structure shown. Values joined by “and” are separate entries in the source; they are usually repeats but may differ in a detail not shown here. Identical values can stand only once. Like-named read-outs stand apart in the source and are kept apart here.

Consider seven compounds from article PMC12281142, “A potent phenylalkylamine disrupts mycobacterial membrane bioenergetics and augments bactericidal activity of bedaquiline” (iScience, 2025).

Series [1] has as its system M. bovis BCG. It is filed as cell-based, Mycobacterium bovis BCG.
The test system of series [2] is M. bovis BCG. It is filed as cell-based, Mycobacterium bovis BCG. Particulars: 15 μM or 8 μg/mL, equivalent to 230x MIC50.
Series [3] concerns M. bovis BCG. Kind of series: microbe, parasite or virus in culture. The series is classed as cell-based, Mycobacterium bovis BCG. The following applies: for MIC50 / MIC90: Mycobacterium tuberculosis variant bovis BCG, BCG.
The subject of another series is Mab abscessus. Kind of series: Time-kill kinetics, Mab abscessus. The series is classed as cell-based, Mycobacterium abscessus subsp. abscessus. Particulars: BDQ alone 4x to 32x MIC90 (0.84–6.7 μg/mL).
The next series concerns Mab abscessus ATCC 19977. Kind of series: MIC against Mab abscessus ATCC 19977. It is filed as cell-based, Mycobacterium abscessus subsp. abscessus. Particulars: Mycobacteroides abscessus; for MIC50: ATCC19977, 72 h, 3 days.
For series [4], the system named is Mab bolletii CCUG 50184-T. Kind of series: MIC against Mab bolletii CCUG 50184-T. The series is classed as cell-based, Mycobacterium abscessus subsp. bolletii. Particulars: Mycobacteroides abscessus; for MIC50: CCUG50184, 72 h, 3 days.
Series [5] concerns Mab massiliense CCUG 48898-T. The series can be described thus: MIC against Mab massiliense CCUG 48898-T. It is filed as cell-based, Mycobacterium abscessus subsp. massiliense. The following applies: Mycobacteroides abscessus; for MIC50: CCUG48898, 72 h, 3 days.
Another series has as its system Mab complex. Kind of series: MIC against Mab complex (summary over the 3 subspecies). It is filed as cell-based, Mycobacterium abscessus. Particulars: Mycobacteroides abscessus, read-out: MIC90 Mab complex.
In a further series the test system is clinical isolates of Mab. The series can be described thus: MIC50 against Mab clinical isolates. The series is classed as cell-based, Mycobacterium abscessus. The following applies: Mycobacteroides abscessus.
For the next series, the system named is Mtb H37Rv. The following applies: minimum concentration to inhibit growth of Mtb H37RV by 99%; cited from earlier work.
Series [6] concerns M. bovis BCG. It is filed as cell-based, Mycobacterium bovis BCG. The following applies: 0.5x to 4x MIC90BCG.
Series [7] has as its system M. bovis BCG. Particulars: 2x MIC90 over 24 h.
Series [8] concerns M. bovis BCG. It is filed as cell-based, Mycobacterium bovis BCG. Particulars: 24 h.
The subject of series [9] is M. bovis BCG. The series is classed as cell-based, Mycobacterium bovis BCG. Particulars: 2x MIC90BCG over 48 h.
The next series has as its system M. bovis BCG-pclgR-RFP. It is filed as cell-based, Mycobacterium bovis BCG. The following applies: 0.25x – 2x MIC90 (controls 10 μM), 24 h.
The test system of series [10] is M. bovis BCG. The series is classed as cell-based, Mycobacterium bovis BCG. The following applies: PhA2 2x–4x MIC90BCG, TDZ 80 μM, 24 h.
Setting [11] is: M. bovis BCG, broth dilution, growth reduced by 50% vs untreated.
Where [12] appears, read: M. bovis BCG, broth dilution, growth reduced by 90% vs untreated.
Setting [13] is: read-out: MIC90 BCG, M. bovis BCG.
Setting [14] is: 7H9 medium (first value of cell).
Where [15] appears, read: CA-MHB medium (second value of cell).
[16] abbreviates: read-out: MIC90 (Table S1), M. bovis BCG, broth dilution.

As to `COc1nc2ccc(Br)cc2cc1[C@@H](c1ccccc1)[C@@](O)(CCN(C)C)c1cccc2ccccc12` [BDQ, bedaquiline], in the series on M. bovis BCG [1] (BDQ alone 4x MIC90BCG (0.56 μg/mL), 28-day time point), the “reduction in CFU” value is recorded as 10 fold. Moreover, the oxygen consumption rate entry in the series with M. bovis BCG [2] is listed as “sharp increase in OCR”. For the same compound, the figures for the MIC50 in the series with M. bovis BCG [3] (setting [11]) and in the series with M. bovis BCG [3] (read-out: MIC50 BCG) were 0.065 µM and 0.036 µg/mL, respectively. Further, the MIC90 in the series with M. bovis BCG [3] (setting [12]) is 0.25 µM; in the series with M. bovis BCG [3] (setting [13]), 0.14 µg/mL; with Mab abscessus ATCC 19977 (ATCC19977, Mab abscessus, read-out: MIC90 abscessus), 0.37 µM and 0.21 µg/mL. In addition, the bactericidal activity entry in the series on Mab abscessus is “none to be bactericidal”.

Take `CC[C@H]1OC(=O)[C@H](C)[C@@H](O[C@H]2C[C@@](C)(OC)[C@@H](O)[C@H](C)O2)[C@H](C)[C@@H](O[C@@H]2O[C@H](C)C[C@H](N(C)C)[C@H]2O)[C@](C)(OC)C[C@@H](C)C(=O)[C@H](C)[C@@H](O)[C@]1(C)O` [CLR, clarithromycin, reference compound]: the MIC90 is 19 µM (≈ 14.2 µg/mL) in series [4] (CCUG50184, 7H9 broth (first value)); 11 µM (≈ 8.23 µg/mL) in [4] (CCUG50184, camH broth (second value)); 2 µM (≈ 1.5 µg/mL) in [5] (CCUG48898, 7H9 broth (first value)); 0.23 µM (≈ 0.172 µg/mL) in [5] (CCUG48898, camH broth (second value)); 0.1 to 8.8 µM in the series on Mab complex; 0.08 to 6.6 µg/mL with Mab complex (range over subspecies, positive control). For the same compound, the MIC90 in the series with Mab abscessus ATCC 19977 (ATCC19977, 7H9 broth (first value), read-out: MIC90 Mab abscessus ATCC 19977) amounted to 0.5 µM (≈ 0.374 µg/mL); with Mab abscessus ATCC 19977 (ATCC19977, camH broth (second value), read-out: MIC90 Mab abscessus ATCC 19977), 0.4 µM (≈ 0.299 µg/mL). Further, the MIC50 is 8.8 µM (≈ 6.58 µg/mL) in series [4] (setting [14]); 1 µM (≈ 0.748 µg/mL) in [4] (setting [15]); 0.5 µM (≈ 0.374 µg/mL) in [5] (setting [14]); 0.1 µM (≈ 0.0748 µg/mL) in series [5] (setting [15]); 0.2 µM (≈ 0.15 µg/mL) in the series on Mab abscessus ATCC 19977 (setting [14]); 0.15 µM (≈ 0.112 µg/mL) against Mab abscessus ATCC 19977 (setting [15]). In addition, the MIC50 with clinical isolates of Mab (Mab clinical isolate M9, 7H9 broth, read-out: MIC50 M9) stood at 0.1 µM (≈ 0.0748 µg/mL); in the series with clinical isolates of Mab (Mab clinical isolate M111, 7H9 broth, read-out: MIC50 M111), 0.08 µM (≈ 0.0598 µg/mL); in the series on clinical isolates of Mab (Mab clinical isolate M232, 7H9 broth, read-out: MIC50 M232), 0.27 µM (≈ 0.202 µg/mL); in the series with clinical isolates of Mab (Mab clinical isolate M337, 7H9 broth, read-out: MIC50 M337), 0.15 µM (≈ 0.112 µg/mL); in the series on clinical isolates of Mab (Mab clinical isolate M404, 7H9 broth, read-out: MIC50 M404) it was 0.1 µM (≈ 0.0748 µg/mL); in the series on clinical isolates of Mab (Mab clinical isolate M422, 7H9 broth, read-out: MIC50 M422) it was 0.22 µM (≈ 0.165 µg/mL). Also, in the series on clinical isolates of Mab (Mab clinical isolate M506, 7H9 broth, read-out: MIC50 M506), the MIC50 worked out at 0.09 µM (≈ 0.0673 µg/mL).

`COc1ccc(C(C#N)(CCCN2CCN(c3ccccc3F)CC2)C(C)C)cc1OC` (stereo not shown) [Compound A1, reference compound]: in the series on Mtb H37Rv, the “MIC99 Mtb” value was 62.5 µM (≈ 27.5 µg/mL). Moreover, in the series on M. bovis BCG [3] (setting [11]), the MIC50 stood at 87 µM. For the same compound, the MIC90 with M. bovis BCG [3] (setting [12]) and with M. bovis BCG [3] (setting [16]) was 138 µM each time.

On to `COc1ccc(CCN(C)CCCC(C#N)(c2ccc(OC)c(OC)c2)C2CCCCC2)cc1OC` (stereo not shown) [Compound A2, reference compound], for which, in the series with Mtb H37Rv, the “MIC99 Mtb” value was 62.5 µM (≈ 30.9 µg/mL). Moreover, the MIC50 in the series with M. bovis BCG [3] (setting [11]) is 36 µM. The MIC90 against M. bovis BCG [3] (setting [12]) and with M. bovis BCG [3] (setting [16]) was 118 µM throughout.

For `NNC(=O)c1ccncc1` [INH, isoniazid, reference compound], the “formazan formation from MTS” value with M. bovis BCG [6] is recorded as “increased formazan formation”. The “regrowth in time-kill curve” value in the series with M. bovis BCG [1] (2xMIC90BCG, 21 days) is “uptick in CFUs was observed after 5 days”. In addition, the membrane permeabilization entry in the series on M. bovis BCG [7] is “negligible permeabilization”. The “MIC90 BCG” value against M. bovis BCG [3] (M. bovis BCG) turned out to be 0.4 µg/mL (≈ 2.92 µM). The values for the MIC90 against M. bovis BCG [3] (setting [12]), in the series with M. bovis BCG [3] (setting [16]) and in the series on M. bovis BCG [3] (setting [13]) were 3.4 µM, 3.5 µM and 0.45 µg/mL, respectively. In the series with M. bovis BCG [8] (4xMIC90BCG (1.6 μg/mL)), the “methylene blue decolorization (O2 uptake)” value is given as “Decolorization (active O2 uptake)”. In addition, in the series with M. bovis BCG [9], the “effect on ATP levels” value was “marked surge in ATP levels”.

As to `CO[C@H]1/C=C/O[C@@]2(C)Oc3c(C)c(O)c4c(O)c(c(/C=N/N5CCN(C)CC5)c(O)c4c3C2=O)NC(=O)/C(C)=C\C=C\[C@H](C)[C@H](O)[C@@H](C)[C@@H](O)[C@@H](C)[C@H](OC(C)=O)[C@@H]1C` [RIF, rifampin, reference compound], the “induction of pclgR promoter activity” value with M. bovis BCG-pclgR-RFP is “No induction”. In addition, in the series on M. bovis BCG [3] (read-out: MIC90 BCG), the MIC90 was 0.04 µM and 0.033 µg/mL.

Turning to `CSc1ccc2c(c1)N(CCC1CCCCN1C)c1ccccc1S2` (stereo not shown) [TDZ, thioridazine, reference compound], the MIC90 with M. bovis BCG [3] (setting [12]) amounted to 30 µM; in the series on M. bovis BCG [3] (setting [13]), 11 µg/mL. In the series with M. bovis BCG [8] (80 μM, 30 μg/mL), the “methylene blue decolorization (O2 uptake)” value is “No decolorization”. The “NADH/NAD+ ratio” value with M. bovis BCG [10] is “higher ratios”.
